Records with an inconclusive call do not appear. The source made the active and inactive calls.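 The calls were made as follows: active = fitted curve reaches activity 50 in the expected rising direction at or below the top valid tested dose; inconclusive = no clear call, values can overlap the other calls; inactive = activity in the wrong direction, and the rest.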
target: Virion infectivity factor (Human immunodeficiency virus type 1 group M subtype B (isolate BH10)) + Virion infectivity factor (Human immunodeficiency virus type 1 group M subtype B (isolate BRU/LAI)) + Virion infectivity factor (Human immunodeficiency virus type 1 group M subtype B (isolate PCV12)) + Virion infectivity factor (Human immunodeficiency virus type 1 group M subtype B (isolate HXB2)) (UniProt P69720+P69721+P69722+P69723); experiment: dose-dependent disruption of HIV Vif self-association – imaging, HEK293T, cherry-picks, dose response (AID 652241); conditions: HEK293T Vif multimerization imaging, 24 h;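 also: imaged cell signal that rises when Vif self-association is disrupted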
Sequence (P69720 whole entry, looked up): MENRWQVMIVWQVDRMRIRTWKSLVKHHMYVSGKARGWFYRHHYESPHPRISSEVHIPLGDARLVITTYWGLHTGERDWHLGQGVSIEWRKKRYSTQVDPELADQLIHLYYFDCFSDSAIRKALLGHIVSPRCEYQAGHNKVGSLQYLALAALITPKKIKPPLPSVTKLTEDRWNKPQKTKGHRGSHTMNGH
Sequence (P69721 whole entry, looked up): as the sequence (P69720 whole entry, looked up) above
Sequence (P69722 whole entry, looked up): as the sequence (P69720 whole entry, looked up) above
Sequence (P69723 whole entry, looked up): as the sequence (P69720 whole entry, looked up) above

AC50 | SMILES
16.5 µM | Cc1nn(Cc2c(Cl)cccc2Cl)c(C)c1NC(=O)c1cnn2c(C(F)F)cc(-c3ccccc3)nc12
14.5 µM | COc1ccc(-c2nc3cnccn3c2NC2CCCCC2)cc1-c1cccc(Cl)c1
> 19.5 µM (inactive) | Cc1cccc(Nc2nc(-c3ccc(O)c(O)c3)cs2)n1
13 µM | COc1cc2ccccc2cc1C(=O)Nc1ccc(Cl)cn1
> 19.5 µM (inactive) | CCOC(=O)N1CCN(c2c(NCc3ccc(Cl)cc3)c(=O)c2=O)CC1
> 19.5 µM (inactive) | CCN(CC)C(=O)c1sc2nc(-c3cccs3)cc(-c3cccs3)c2c1N
19.1 µM | CCCc1cc(=O)oc2cc(OCc3cc(OC)c(OC)c(OC)c3)c(Cl)cc12
17.2 µM | COC(=O)c1ccc(Oc2coc3cc(OCc4cnn(-c5ccccc5)c4)ccc3c2=O)cc1
9.23 µM | Cc1cnc(NC(=O)CN2CCN(c3ccccn3)CC2)s1
> 19.5 µM (inactive) | COc1ccc(-c2ccc3c(N)c(C(=O)c4ccc(OC)c(OC)c4)sc3n2)cc1
1.79 µM | Cc1ccnc(NC(=O)CCCOc2cc(=O)n(C)c3ccccc23)c1
5.92 µM | COc1ccc(CCNc2nnc(Sc3nnnn3-c3ccccc3)s2)cc1OC
10.7 µM | Cc1nnc2ccc(-c3cccc(NS(=O)(=O)c4cc(F)ccc4F)c3)nn12
3.03 µM | COc1cc(-c2cnc3c(NC=O)cc(-c4ccccc4Cl)cn23)cc(OC)c1OC
8.45 µM | Cc1cc2cc(C#N)c(SCC(=O)Nc3nonc3C)nc2cc1C
13.4 µM | COc1ccc(-c2cc(N)n(S(=O)(=O)c3c(F)c(F)c(F)c(F)c3F)n2)cc1OC
> 19.5 µM (inactive) | CCOc1ccc(N2C(=O)/C(=C/c3cccs3)N(CC(=O)OC)C2=S)cc1
19.5 µM | O=C(/C=C/c1ccccc1)Nc1ncn[nH]1
1.33 µM | COc1ccc(/C=C/C(=O)c2cc(F)ccc2OC(=O)c2ccccc2OC)cc1OC
19.2 µM | c1ccc(-c2cn3nc(-c4ccccc4)c(-c4ccccc4)nc3n2)cc1
2.02 µM | Cc1ccc(CCC(=O)Nc2ncc(Cc3cc(Cl)ccc3Cl)s2)o1
14.7 µM | COc1ccc2cc(-c3cc(C(=O)OCC(=O)NC4CCS(=O)(=O)C4)c4ccccc4n3)ccc2c1 (centres undefined)
0.849 µM | COc1cc(C2C3=C(COC3=O)Oc3cc4c(cc32)OCO4)cc(OC)c1O (centres undefined)
8.52 µM | COc1ccc(-c2cc(C(F)(F)F)n3nc(C(=O)NCc4ccco4)c(Cl)c3n2)cc1
12.1 µM | O=C(COc1ccc(-n2cnnn2)cc1)Nc1cc(Cl)cc(Cl)c1
15.8 µM | N#Cc1c(C(F)(F)F)cc(-c2ccco2)nc1SCc1ccncc1
9.83 µM | Oc1ccc(-c2nc(-c3ccc(O)c(O)c3)cs2)cc1

same assay, conditions: HEK293T Vif multimerization imaging, 24 h; at 2.1 µM (top of the series)

activity, higher = inhibition | SMILES
inactive | Cc1ccc(/C=C2/CNC/C(=C/c3ccc(C)cc3)C2=O)cc1
inactive | OCC1OC(n2cnc3c(NCc4ccco4)ncnc32)C(O)C1O (centres undefined)

same assay, conditions: HEK293T Vif multimerization imaging, 24 h; at 6.8 µM (top of the series)

activity, higher = inhibition | SMILES
inactive | COc1ccc(-c2nc(CS(=O)(=O)CC(=O)NCCc3ccccc3)c(C)o2)cc1
inactive | COc1ccc(OC)c(NC(=O)c2cc3ccccc3cc2OC)c1
inactive | COc1cc(Nc2nc3ccccc3n3nnnc23)cc(OC)c1OC

same assay, conditions: HEK293T Vif multimerization imaging, 24 h; at 19.5 µM (top of the series)

activity, higher = inhibition | SMILES
inactive | O=C(NNC(=O)c1cc2ccccc2oc1=O)c1ccccc1
inactive | CCOC(=O)C[C@@H](C#N)NC(=O)[C@@H]1CCCN1C(=O)[C@@H](NC(=O)c1ccc(N)c(Cl)c1)C(C)(C)C
inactive | O=C(c1cc(Cl)c(=O)n(Cc2ccccc2)c1)N1CCOCC1
inactive | CCc1cc2c(Sc3nc4ccccc4s3)ncnc2s1
inactive | COc1ccc(C(=O)NC2CC3CCCC(C2)N3Cc2ccccc2)cc1OC (centres undefined)
inactive | Cc1nc(-c2ccccc2OC(F)(F)F)[nH]c(=O)c1Cl
inactive | COc1cc(OC)cc(C(=O)NC(C(=O)Nc2ccc3c(c2)OCO3)C(C)C)c1 (centres undefined)
inactive | COc1ccc(CNC(=O)COC(=O)c2cc(S(=O)(=O)N3CCOCC3)ccc2O)cc1OC
inactive | CCOc1cccc(C(=O)Nc2ccc3oc(Cc4ccc(Cl)cc4)nc3c2)c1
inactive | Cc1c(NC(=O)CC(O)(C(F)(F)F)C(F)(F)F)c(=O)n(-c2ccccc2)n1C
inactive | CCOc1ccc2c(C)c(C(=O)O)oc2c1OCC
inactive | CCCCCCn1c(N(CC)CC)nc2c1c(=O)[nH]c(=O)n2C
inactive | CCOC(=O)Cc1csc(NC(=O)CSc2nnnn2-c2ccc(CC)cc2)n1
inactive | COc1c(Br)cc(Br)cc1/C=C1/C(=O)N=C(N)N1C
inactive | CCN1CCN(c2cc(=O)n(-c3cc(Cl)ccc3C)c(=O)[nH]2)CC1
inactive | NC(=O)c1sc2nc(-c3ccccc3)ccc2c1N
inactive | Cc1ccc(S(=O)(=O)NC(=O)Nn2c(C)nnc2C)cc1
inactive | N#Cc1c2ccc(OCC(N)=O)cc2n2ccccc12
inactive | CCn1c(SCc2ccc(C(=O)Nc3nccs3)cc2)nnc1-c1ccc(N)cc1
inactive | CCCn1nnc(NC(=O)C(c2ccccc2)c2ccccc2)n1
inactive | O=C(NC1CCCc2ccccc21)c1ccccc1Br (centres undefined)

activity, higher = inhibition | SMILES
inactive | OC(CNCc1ccccc1Cl)COc1ccc(F)cc1 (centres undefined)
inactive | COc1ccc(CC(=O)OCC(=O)Nc2cccc(Br)c2)cc1
inactive | O=C(NCc1ccccn1)c1ccc(Cn2c(=S)[nH]c3ccc(Br)cc3c2=O)cc1
inactive | CCC(C)n1c(-c2cccs2)nc2nc3ccccc3nc21 (centres undefined)
inactive | Cc1nnc(NC(=O)CSc2nnc(NC(=O)C(C)(C)C)s2)s1
inactive | CCCn1c(=O)c(C(=O)Nc2ncccc2O)c(O)c2ccccc21
inactive | CCOC(=O)C1(Cc2ccccc2)CCN(Cc2csc(C(C)=O)c2)CC1
inactive | COc1ccccc1CNC(=O)CSC1=NCCS1
inactive | CC1Cc2ccccc2N1C(=O)COC(=O)c1ccccc1NCCO (centres undefined)
inactive | CC1(C)CC(=O)C2=C(C1)Nc1ccccc1N(C(=O)C1CC1)C2c1ccco1 (centres undefined)
inactive | COCCN(C(=O)COC(=O)Cc1ccc(Cl)cc1)c1c(N)n(Cc2ccccc2)c(=O)[nH]c1=O
inactive | COc1c2ccoc2nc2c(OC)c(OC[C@@H](O)C(C)(C)O)ccc12
inactive | CCCCn1c(-c2ccncc2)nc2c1c(=O)[nH]c(=O)n2CC(C)C
inactive | O=C(O)c1ccc(S(=O)(=O)c2ccc3c(c2)C(=O)N(c2ccc(Br)cc2)C3=O)cc1
inactive | O=C(O)c1ccc(-c2nc(-c3cccc(C(F)(F)F)c3)cs2)cc1
inactive | CC1CN(S(=O)(=O)c2cccc(C(=O)N3CCC(C(N)=O)CC3)c2)CC(C)O1 (centres undefined)
inactive | CC(C)c1ccc(NC(=O)N2CCCC2C(=O)Nc2ccc(-n3cnnn3)cc2)cc1 (centres undefined)
inactive | COc1ccccc1NC(=O)c1ccccc1NC(=O)c1ccccn1
inactive | Cc1ncoc1C(=O)N1CCCC(C(=O)c2ccc(Oc3ccccc3)cc2)C1 (centres undefined)
inactive | CCn1cc(CN2CCCC(C(=O)Nc3cccc(-c4cc5ccccc5[nH]4)c3)C2)c(C)n1 (centres undefined)
inactive | COc1ccccc1C(=O)COC(=O)C1(C)CC1(Cl)Cl (centres undefined)

activity, higher = inhibition | SMILES
inactive | O=C(CCCn1c(=S)[nH]c2ccccc2c1=O)N1CCN(c2cccc(Cl)c2)CC1
inactive | COc1ccc2cc(CCNS(=O)(=O)c3ccc(NC(C)=O)cc3)c(=O)[nH]c2c1
inactive | COc1ccc(CCNC(=O)[C@@H](NC(N)=O)C(C)C)cc1
inactive | COc1ccc(-c2nnc(SCC(=O)N3CCCc4ccccc43)o2)cc1OC
inactive | CN(C)c1ccc(C(O)Cc2nc3ccccc3n2C)cc1 (centres undefined)
inactive | COc1cc2[nH]c(=O)n(CCCC(=O)NC3CCCCC3)c(=O)c2cc1OC
inactive | CCCCOc1cccc2c(=O)n(CC(=O)Nc3ccc4c(c3)OCCO4)ccc12
inactive | CCOC(=O)c1c(C)[nH]c(-c2csc(N)n2)c1C
inactive | CCN1C(=O)NC(c2ccccc2)C1=O (centres undefined)
inactive | Cc1cccc2cc(COC(=O)c3ccco3)c(=O)[nH]c12
inactive | CCCOc1ccc(C(O)(CCC)CCN2CCCCC2)cc1 (centres undefined)
inactive | Cc1cccc(C)c1NC(=O)COc1ccc2c(C)c(Cc3ccccc3)c(=O)oc2c1C
inactive | COC(=O)c1sc(-c2ccc(Cl)cc2)cc1NC(=O)CSCC(=O)O
inactive | COC(CNC(=O)C1CCN(C(=O)c2cc3oc(C)cc3n2Cc2c(F)cccc2Cl)CC1)OC
inactive | O=S(=O)(Nc1nc2ccccc2nc1NCc1ccco1)c1ccc(Cl)cc1
inactive | COc1ccc(-c2coc3c(C(=O)Nc4cccc(C(C)=O)c4)cccc23)c(C)c1
inactive | O=C(O)CCCCn1c(SCc2ccccc2Cl)nc2ccsc2c1=O
inactive | O=C(CCc1ccccc1)Nc1ccccc1
inactive | Cc1ccc(Nc2nc(N)nc(CSc3nnc(-c4ccncc4)o3)n2)cc1
inactive | CC(C)n1nc(C(=O)Nc2ccc(-n3cnnn3)cc2)c2ccccc2c1=O

Source: PubChem BioAssay AID652241 (Broad Institute, 2013)
